According to patent US8623885B2, “Fused tricyclic dual inhibitors of CDK 4/6 and FLT3” (Amgen Inc., priority 2011, dated 2014):

How the values were obtained:
[1] = target: FLT3 enzyme (GST-FLT3 fusion) (Homo sapiens (Human), UniProt P36888); assay: FLT3 HTRF kinase assay; assay type: biochemical; details: 116 μM ATP
Description: The FLT3 inhibitory activity of the CDK4/6-FLT3 inhibitors was determined with a HTRF kinase assay. The FLT3 enzyme (GST-FLT3 fusion) was purchased from Carna Biosciences. An ULight-labeled synthetic peptide derived from human Janus kinase 1 (aa1015-1027, ULight-JAK1, PerkinElmer) was utilized as the phosphoacceptor substrate. The assay was conducted in a 384-well white OptiPlate (PerkinElmer). The 20 μL reaction mixture contained 50 nM ULight-JAK1, 116 μM ATP, 0.0385 ng/μL FLT3 and dilutions of test compounds in the kinase buffer (50 mM Hepes, pH 7.6, 1 mM EGTA, 10 mM MgCl2, 2 mM DTT, and 0.005% Tween 20). The reaction was allowed to proceed for 1 hour at room temperature and was stopped by adding 20 μL of 10 mM EDTA, 2 nM LANCE® Eu-W1024 anti-phospho-tyrosine antibody in LANCE® detection buffer (PerkinElmer). The plates were incubated at room temperature for 2 hours after addition of detection reagents and then read on an Envision multimode reader (PerkinElmer).
(§1) IC50 values of the compounds in the above assays were determined by non-linear regression analysis using Prism (GraphPad Software).

CDK4/Cyclin D1 = CDK4/Cyclin D1 (Homo sapiens (Human), UniProt P11802); assay: CDK4 filtration kinase assay; assay type: biochemical; details: CDK4/Cyclin D1, Rb fragment substrate, [33P]-ATP filtration assay
Description: The CDK4 and CDK1 inhibitory activity of the CDK4/6-FLT3 inhibitors was determined with a filtration kinase assay. The compounds, kinase and substrate diluted in the kinase buffer (20 mM Tris, pH7.4, 50 mM NaCl, 1 mM DTT, 0.1% BSA) were sequentially added to a 96-well Multiscreen HTS filtration plate (Millipore). The final 100 μL reaction mixture in each well contained 0.3 μg of CDK4/Cyclin D1 or CDK1/Cyclin B (Cell Signaling Technology), 1 μg of Rb fragment (aa773-928, Millipore) for the CDK4 assay or 5 μg of histone H1 for the CDK1 assay and 1 μCi of [^33P]-ATP. The mixture was incubated at room temperature for 1 hour. The proteins in the reaction were then precipitated and washed with cold TCA solution using an aspiration/filtration vacuum system. The plates were dried at room temperature, and the retained radioactivity was measured by scintillation counting.
as §1

MOLM13 cells = assay: [14C]-thymidine incorporation cell proliferation assay, MOLM13; assay type: cell-based, human
Description: The cell proliferation inhibition potency of the CDK4/6-FLT3 inhibitors was determined by using a [^14C]-thymidine incorporation assay. Exponentially growing cells (MOLM-13, Colo-205, etc.) were seeded in a 96-well Cytostar T plate (GE Healthcare Biosciences) at a density of 5×10^3 cells/well and incubated overnight. Serially diluted compounds and 0.1 μCi of [^14C]-thymidine (GE Healthcare Biosciences) were added to each well on the following day. After 72 hour incubation, isotope incorporation was determined with a β plate counter (Wallac). MOLM13 is a human AML tumor cell line expressing FLT3, FLT3^ITD and wild type Rb.
as §1

[2] = Homo sapiens, MOLM-13, 72 hour incubation

Sequence of FLT3 enzyme (GST-FLT3 fusion) (P36888 27-993): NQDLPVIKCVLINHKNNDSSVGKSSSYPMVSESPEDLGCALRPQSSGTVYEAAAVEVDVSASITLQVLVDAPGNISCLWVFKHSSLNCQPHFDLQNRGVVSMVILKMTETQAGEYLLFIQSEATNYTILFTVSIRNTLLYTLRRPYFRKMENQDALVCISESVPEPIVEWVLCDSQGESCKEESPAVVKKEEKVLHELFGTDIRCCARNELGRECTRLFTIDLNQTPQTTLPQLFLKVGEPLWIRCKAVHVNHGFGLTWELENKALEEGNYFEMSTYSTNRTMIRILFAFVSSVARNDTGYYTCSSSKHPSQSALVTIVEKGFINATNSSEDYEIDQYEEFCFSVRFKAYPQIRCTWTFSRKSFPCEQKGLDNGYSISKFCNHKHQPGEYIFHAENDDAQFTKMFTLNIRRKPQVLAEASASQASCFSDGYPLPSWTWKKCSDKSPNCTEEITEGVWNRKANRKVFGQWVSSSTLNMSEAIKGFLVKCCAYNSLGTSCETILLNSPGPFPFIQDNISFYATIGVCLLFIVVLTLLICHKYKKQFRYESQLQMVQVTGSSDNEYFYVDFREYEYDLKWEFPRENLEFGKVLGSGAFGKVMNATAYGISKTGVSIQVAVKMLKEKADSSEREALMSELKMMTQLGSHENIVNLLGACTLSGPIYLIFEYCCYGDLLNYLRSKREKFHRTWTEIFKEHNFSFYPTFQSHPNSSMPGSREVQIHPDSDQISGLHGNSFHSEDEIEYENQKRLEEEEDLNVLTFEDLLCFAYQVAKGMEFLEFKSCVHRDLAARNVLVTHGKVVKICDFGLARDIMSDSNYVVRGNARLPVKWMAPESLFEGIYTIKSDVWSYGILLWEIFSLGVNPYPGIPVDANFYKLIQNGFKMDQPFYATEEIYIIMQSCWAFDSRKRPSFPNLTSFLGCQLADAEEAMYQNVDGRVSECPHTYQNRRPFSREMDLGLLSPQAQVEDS
Sequence of CDK4/Cyclin D1 (P11802 whole entry, the tested form may be a part): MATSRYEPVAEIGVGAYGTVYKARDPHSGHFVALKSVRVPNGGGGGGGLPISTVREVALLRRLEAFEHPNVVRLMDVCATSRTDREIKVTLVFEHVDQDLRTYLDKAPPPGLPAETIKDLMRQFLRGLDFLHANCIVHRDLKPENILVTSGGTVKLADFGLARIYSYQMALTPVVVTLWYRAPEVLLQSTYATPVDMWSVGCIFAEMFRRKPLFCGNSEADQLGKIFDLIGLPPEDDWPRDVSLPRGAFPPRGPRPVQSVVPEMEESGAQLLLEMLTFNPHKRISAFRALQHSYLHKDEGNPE
Sequence of CDK4/Cyclin D1 (P24385 whole entry partner, the tested form may be a part): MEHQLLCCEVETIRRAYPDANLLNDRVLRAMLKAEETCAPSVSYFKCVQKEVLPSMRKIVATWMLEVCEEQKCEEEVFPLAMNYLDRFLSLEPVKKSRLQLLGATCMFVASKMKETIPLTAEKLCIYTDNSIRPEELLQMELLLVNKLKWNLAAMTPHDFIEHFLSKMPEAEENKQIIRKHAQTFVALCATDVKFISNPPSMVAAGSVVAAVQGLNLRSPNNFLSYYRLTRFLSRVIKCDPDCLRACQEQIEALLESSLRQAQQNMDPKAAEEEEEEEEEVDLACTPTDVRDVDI

IC50 [1] [nM]	IC50 (CDK4/Cyclin D1) [nM]	IC50 (MOLM13 cells; 72 hour incubation) [nM]	IC50 (MOLM13 cells; [2]) [nM]	Compound
1.6	18.8	24.2		CC(=O)N1Cc2ccc(Nc3ncc4c5ccncc5n([C@H]5CC[C@H](C)CC5)c4n3)nc2[C@H](C)C1 (single isomer, unassigned) [Example 18a, 1((R)-8-Methyl-2-((9-((1r,4R)-4-methylcyclohexyl)-9H-pyrido[4′,3′:4,5]pyrrolo[2,3-d]pyrimidin-2-yl)amino)-7,8-dihydro-1,6-naphthyridin-6(5H)-yl)ethanone or 1((S)-8-methyl-2-((9-((1r,4S)-4-methylcyclohexyl)-9H-pyrido[4′,3′:4,5]pyrrolo[2,3-d]pyrimidin-2-yl)amino)-7,8-dihydro-1,6-naphthyridin-6(5H)-yl)ethanone]
2	4.6		21.1	C[C@H]1CC[C@H](n2c3cnccc3c3cnc(Nc4ccc5c(n4)CCN(CCCO)C5)nc32)CC1 [Example 4, 3-(2-((9-((1r,4r)-4-Methylcyclohexyl)-9H-pyrido[4′,3′:4,5]pyrrolo[2,3-d]pyrimidin-2-yl)amino)-7,8-dihydro-1,6-naphthyridin-6(5H)-yl)propan-1-ol]
1.7	10.5		33.2	COCCN1CCc2nc(Nc3ncc4c5ccncc5n([C@H]5CC[C@H](C)CC5)c4n3)ccc2C1 [Example 10, N-(6-(2-Methoxyethyl)-5,6,7,8-tetrahydro-1,6-naphthyridin-2-yl)-9-((1r,4r)-4-methylcyclohexyl)-9H-pyrido[4′,3′:4,5]pyrrolo[2,3-d]pyrimidin-2-amine]
2.7	18.4		10.8	C[C@H]1CC[C@H](n2c3cnccc3c3cnc(Nc4cc5c(cn4)CCN(CCO)C5)nc32)CC1 [Example 12, 2-(7-((9-((1r,4r)-4-Methylcyclohexyl)-9H-pyrido[4′,3′:4,5]pyrrolo[2,3-d]pyrimidin-2-yl)amino)-3,4-dihydro-2,6-naphthyridin-2(1H)-yl)ethanol]
2.3	463	20		CC(=O)N1Cc2ccc(Nc3ncc4c5ccncc5n([C@H]5CC[C@H](C)CC5)c4n3)nc2[C@@H](C)C1 (single isomer, unassigned) [Example 18b, 1-((R)-8-Methyl-2-((9-((1 r,4R)-4-methylcyclohexyl)-9H-pyrido[4′,3′:4,5]pyrrolo[2,3-d]pyrimidin-2-yl)amino)-7,8-dihydro-1,6-naphthyridin-6(5H)-yl)ethanone or 1-((S)-8-methyl-2-09-((1r,4S)-4-methylcyclohexyl)-9H-pyrido[4′,3′:4,5]pyrrolo[2,3-d]pyrimidin-2-yl)amino)-7,8-dihydro-1,6-naphthyridin-6(5H)-yl)ethanone]
1.8	31.3		54.5	CC1CNCc2ccc(Nc3ncc4c5ccncc5n([C@H]5CC[C@H](C)CC5)c4n3)nc21 (stereo partly drawn) [Example 13, N-(8-Methyl-5,6,7,8-tetrahydro-1,6-naphthyridin-2-yl)-9-((1r,4r)-4-methylcyclohexyl)-9H-pyrido[4′,3′:4,5]pyrrolo[2,3-d]pyrimidin-2-amine]
3.1	20.3		29.5	CC1CN(CCO)Cc2ccc(Nc3ncc4c5ccncc5n([C@H]5CC[C@H](C)CC5)c4n3)nc21 (stereo partly drawn) [Example 15, 2-(8-Methyl-2-((9-((1r,4r)-4-methylcyclohexyl)-9H-pyrido[4′,3′:4,5]pyrrolo[2,3-d]pyrimidin-2-yl)amino)-7,8-dihydro-1,6-naphthyridin-6(5H)-yl)ethanol]
0.65	36		5.2	O=C(CO)N1CCc2nc(Nc3ncc4c5ccncc5n(C5CCCC5)c4n3)ccc2C1 [Example 22, 1-(2-((9-Cyclopentyl-9H-pyrido[4′,3′:4,5]pyrrolo[2,3-d]pyrimidin-2-yl)amino)-7,8-dihydro-1,6-naphthyridin-6(5H)-yl)-2-hydroxyethanone]
